Assay: Example 1: broiler performance (body weight, gain, feed intake, FCR), PQQ in diet, 0 to 49 days
Format: in vivo, Broiler Chicken (Ross 708)
Text: Study Animals: • Animal: Broiler Chicken • Breed/Strain: Ross 708 • Description: Day-of-hatch male chicks, sexed at hatchery • Sex: Male Total number of treatments: 4 Total number of replicates per treatment: 12 Total number of chicks per replicate: 40 Initial age: day-of-hatch: 0 days-of-age Final age: 7 weeks: 49 days-of-age. Feed will be changed based on the days of each phase. • Starter feed will be weighed out and fed from day 0 to 14. On day 14, non-consumed starter feed will be weighed by pen and discarded. • Grower feed will be weighed, issued and fed from day 14 until 28. On day 28, non-consumed grower feed will be weighed by pen and discarded. • Finisher feed will be weighed, issued and fed from day 28 until 42. On day 42, non-consumed finisher feed will be weighed by pen and discarded. • Withdraw feed will be weighed, issued and fed from day 42 until 49. On day 49, non-consumed finisher feed will be weighed by pen and discarded. Performance: Feed consumption and pen weights are determined on days 0, 14, 21, 28, 35, 42 and 49 to calculate average body weight (BW), body weight gain (BWG) and feed conversion ratio (FCR). Final bird weights: At the end of the grow-out period (Day 49), all birds are weighed, as well as any and all remaining feed. Randomized Complete Block Design with 4 treatments×12 replicates/treatment (40 birds/pen), randomized within blocks across the barn to minimize differences in environmental condition. The pen is the experimental unit. Dietary Treatments • Control (NC, negative control without PQQ) • 0.5 ppm PQQ • 1 ppm PQQ • 2 ppm PQQ The results are presented in the following tables 1-4 for broilers fed diets from the first week to the seventh week (corresponding to 0 to 49 days of age). The values are means and SD is standard variation. The feed conversion ratio is the ratio between feed intake and body weight gain.

In the case of `O=C(O)c1cc(C(=O)O)c2c(n1)C(=O)C(=O)c1cc(C(=O)O)[nH]c1-2` [PQQ, pyrroloquinoline quinone], the body weight (0.5 ppm PQQ, wk 1) is reported as 0.139 kg, the “feed conversion ratio (FCR)” value (0.5 ppm PQQ, wk 1) is reported as 1.491 and the feed intake (0.5 ppm PQQ, wk 1) is reported as 0.142 kg. For the same molecule, the “weekly body weight gain” value (0.5 ppm PQQ, wk 1) was 0.095 kg, the body weight (0.5 ppm PQQ, wk 2) was 0.355 kg and the “feed conversion ratio (FCR)” value (0.5 ppm PQQ, wk 2) was 1.400. The feed intake (0.5 ppm PQQ, wk 2) was 0.299 kg, the “weekly body weight gain” value (0.5 ppm PQQ, wk 2) was 0.215 kg and the body weight (0.5 ppm PQQ, wk 3) was 0.763 kg. The “feed conversion ratio (FCR)” value (0.5 ppm PQQ, wk 3) was 1.623, the feed intake (0.5 ppm PQQ, wk 3) was 0.671 kg and the “weekly body weight gain” value (0.5 ppm PQQ, wk 3) was 0.414 kg. The body weight (0.5 ppm PQQ, wk 4) was 1.286 kg, the “feed conversion ratio (FCR)” value (0.5 ppm PQQ, wk 4) was 1.435 and the feed intake (0.5 ppm PQQ, wk 4) was 0.796 kg. The “weekly body weight gain” value (0.5 ppm PQQ, wk 4) was 0.556 kg, the body weight (0.5 ppm PQQ, wk 5) was 2.042 kg and the “feed conversion ratio (FCR)” value (0.5 ppm PQQ, wk 5) was 1.617. For the same molecule, the feed intake (0.5 ppm PQQ, wk 5) was 1.139 kg, the “weekly body weight gain” value (0.5 ppm PQQ, wk 5) was 0.688 kg and the body weight (0.5 ppm PQQ, wk 6) was 2.808 kg. For the same molecule, the “feed conversion ratio (FCR)” value (0.5 ppm PQQ, wk 6) was 1.755, the feed intake (0.5 ppm PQQ, wk 6) was 1.346 kg and the “weekly body weight gain” value (0.5 ppm PQQ, wk 6) was 0.767 kg. The body weight (0.5 ppm PQQ, wk 7) was 3.416 kg, the “feed conversion ratio (FCR)” value (0.5 ppm PQQ, wk 7) was 1.603 and the feed intake (0.5 ppm PQQ, wk 7) was 0.986 kg. For the same molecule, the “weekly body weight gain” value (0.5 ppm PQQ, wk 7) was 0.622 kg, the “influence on the body weight” value (0.5 ppm, as from the second week) was “positive influence” and the body weight (1.0 ppm PQQ, wk 1) was 0.145 kg. The “feed conversion ratio (FCR)” value (1.0 ppm PQQ, wk 1) was 1.514, the feed intake (1.0 ppm PQQ, wk 1) was 0.151 kg and the “weekly body weight gain” value (1.0 ppm PQQ, wk 1) was 0.100 kg. The body weight (1.0 ppm PQQ, wk 2) was 0.371 kg, the “feed conversion ratio (FCR)” value (1.0 ppm PQQ, wk 2) was 1.418 and the feed intake (1.0 ppm PQQ, wk 2) was 0.315 kg. For the same molecule, the “weekly body weight gain” value (1.0 ppm PQQ, wk 2) was 0.225 kg, the body weight (1.0 ppm PQQ, wk 3) was 0.790 kg and the “feed conversion ratio (FCR)” value (1.0 ppm PQQ, wk 3) was 1.619. The feed intake (1.0 ppm PQQ, wk 3) was 0.678 kg, the “weekly body weight gain” value (1.0 ppm PQQ, wk 3) was 0.419 kg and the body weight (1.0 ppm PQQ, wk 4) was 1.329 kg. The “feed conversion ratio (FCR)” value (1.0 ppm PQQ, wk 4) was 1.427, the feed intake (1.0 ppm PQQ, wk 4) was 0.816 kg and the “weekly body weight gain” value (1.0 ppm PQQ, wk 4) was 0.573 kg. For the same molecule, the body weight (1.0 ppm PQQ, wk 5) was 2.112 kg, the “feed conversion ratio (FCR)” value (1.0 ppm PQQ, wk 5) was 1.608 and the feed intake (1.0 ppm PQQ, wk 5) was 1.161 kg. For the same molecule, the “weekly body weight gain” value (1.0 ppm PQQ, wk 5) was 0.723 kg, the body weight (1.0 ppm PQQ, wk 6) was 2.927 kg and the “feed conversion ratio (FCR)” value (1.0 ppm PQQ, wk 6) was 1.741. The feed intake (1.0 ppm PQQ, wk 6) was 1.370 kg, the “weekly body weight gain” value (1.0 ppm PQQ, wk 6) was 0.787 kg and the body weight (1.0 ppm PQQ, wk 7) was 3.612 kg. The “feed conversion ratio (FCR)” value (1.0 ppm PQQ, wk 7) was 1.616, the feed intake (1.0 ppm PQQ, wk 7) was 1.106 kg and the “weekly body weight gain” value (1.0 ppm PQQ, wk 7) was 0.686 kg. The “influence on the body weight” value (1 ppm and 2 ppm, as from the first week up to the end of the assay) was “positive influence”, the body weight (2.0 ppm PQQ, wk 1) was 0.146 kg and the “feed conversion ratio (FCR)” value (2.0 ppm PQQ, wk 1) was 1.406. For the same molecule, the feed intake (2.0 ppm PQQ, wk 1) was 0.142 kg, the “weekly body weight gain” value (2.0 ppm PQQ, wk 1) was 0.102 kg and the body weight (2.0 ppm PQQ, wk 2) was 0.373 kg. The “feed conversion ratio (FCR)” value (2.0 ppm PQQ, wk 2) was 1.414, the feed intake (2.0 ppm PQQ, wk 2) was 0.315 kg and the “weekly body weight gain” value (2.0 ppm PQQ, wk 2) was 0.224 kg. The body weight (2.0 ppm PQQ, wk 3) was 0.794 kg, the “feed conversion ratio (FCR)” value (2.0 ppm PQQ, wk 3) was 1.608 and the feed intake (2.0 ppm PQQ, wk 3) was 0.645 kg. The “weekly body weight gain” value (2.0 ppm PQQ, wk 3) was 0.425 kg, the body weight (2.0 ppm PQQ, wk 4) was 1.331 kg and the “feed conversion ratio (FCR)” value (2.0 ppm PQQ, wk 4) was 1.469. The feed intake (2.0 ppm PQQ, wk 4) was 0.813 kg, the “weekly body weight gain” value (2.0 ppm PQQ, wk 4) was 0.548 kg and the body weight (2.0 ppm PQQ, wk 5) was 2.065 kg. The “feed conversion ratio (FCR)” value (2.0 ppm PQQ, wk 5) was 1.605, the feed intake (2.0 ppm PQQ, wk 5) was 1.141 kg and the “weekly body weight gain” value (2.0 ppm PQQ, wk 5) was 0.727 kg. For the same molecule, the body weight (2.0 ppm PQQ, wk 6) was 2.835 kg, the “feed conversion ratio (FCR)” value (2.0 ppm PQQ, wk 6) was 1.741 and the feed intake (2.0 ppm PQQ, wk 6) was 1.336 kg. The “weekly body weight gain” value (2.0 ppm PQQ, wk 6) was 0.77 kg, the body weight (2.0 ppm PQQ, wk 7) was 3.472 kg and the “feed conversion ratio (FCR)” value (2.0 ppm PQQ, wk 7) was 1.615. The feed intake (2.0 ppm PQQ, wk 7) was 1.041 kg, the “weekly body weight gain” value (2.0 ppm PQQ, wk 7) was 0.648 kg and the “influence on the feed intake” value (as from a concentration of 1 ppm) was “has an influence on the feed intake”.

— US20210161174A1, “FEED ADDITIVE FOR FARMED ANIMALS” (ADISSEO FRANCE S.A.S., priority 2018, published 2021)
